Laboratory results taken from ChEMBL document CHEMBL6103659, “Structural Studies of the Dopamine D4 Receptor Antagonist Sonepiprazole as an Inhibitor of Human Carbonic Anhydrases” (ACS Med Chem Lett, 2025).

How the values were obtained:
[1] = target: Carbonic anhydrase 3 (Homo sapiens, UniProt P07451)
[2] = target: Carbonic anhydrase 1 (Homo sapiens, UniProt P00915)
[3] = target: Carbonic anhydrase 2 (Homo sapiens, UniProt P00918)
[4] = target: Carbonic anhydrase 7 (Homo sapiens, UniProt P43166)
Carbonic anhydrase 7, sequence (P43166 whole entry): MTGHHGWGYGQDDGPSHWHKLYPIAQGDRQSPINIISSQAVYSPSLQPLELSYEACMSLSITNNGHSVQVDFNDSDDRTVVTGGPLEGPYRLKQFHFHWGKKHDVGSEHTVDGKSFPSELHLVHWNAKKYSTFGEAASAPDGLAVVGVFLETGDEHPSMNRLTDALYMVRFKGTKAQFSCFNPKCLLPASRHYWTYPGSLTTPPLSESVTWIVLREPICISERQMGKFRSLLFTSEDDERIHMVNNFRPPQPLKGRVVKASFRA

[5] = target: Carbonic anhydrase 9 (Homo sapiens, UniProt Q16790)
[6] = target: Carbonic anhydrase 12 (Homo sapiens, UniProt O43570)
Carbonic anhydrase 12, sequence (O43570 whole entry): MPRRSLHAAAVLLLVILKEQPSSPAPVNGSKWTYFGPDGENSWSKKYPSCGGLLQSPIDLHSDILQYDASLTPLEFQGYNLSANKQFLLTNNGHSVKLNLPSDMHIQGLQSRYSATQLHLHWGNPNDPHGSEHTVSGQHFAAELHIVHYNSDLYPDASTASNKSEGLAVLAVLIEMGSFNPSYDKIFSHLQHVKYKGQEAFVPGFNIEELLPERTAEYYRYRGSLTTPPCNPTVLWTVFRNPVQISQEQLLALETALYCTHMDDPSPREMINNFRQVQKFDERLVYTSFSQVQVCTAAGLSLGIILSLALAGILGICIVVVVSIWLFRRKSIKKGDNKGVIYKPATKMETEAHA

Carbonic anhydrase 3, sequence (P07451 whole entry): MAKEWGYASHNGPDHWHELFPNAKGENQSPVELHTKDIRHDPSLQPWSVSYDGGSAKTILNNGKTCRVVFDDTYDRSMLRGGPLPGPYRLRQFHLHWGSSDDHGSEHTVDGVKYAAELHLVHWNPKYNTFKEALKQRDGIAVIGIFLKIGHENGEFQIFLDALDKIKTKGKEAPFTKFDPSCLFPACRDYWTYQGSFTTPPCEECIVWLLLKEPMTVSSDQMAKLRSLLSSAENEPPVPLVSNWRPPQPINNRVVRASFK
Carbonic anhydrase 1, sequence (P00915 whole entry): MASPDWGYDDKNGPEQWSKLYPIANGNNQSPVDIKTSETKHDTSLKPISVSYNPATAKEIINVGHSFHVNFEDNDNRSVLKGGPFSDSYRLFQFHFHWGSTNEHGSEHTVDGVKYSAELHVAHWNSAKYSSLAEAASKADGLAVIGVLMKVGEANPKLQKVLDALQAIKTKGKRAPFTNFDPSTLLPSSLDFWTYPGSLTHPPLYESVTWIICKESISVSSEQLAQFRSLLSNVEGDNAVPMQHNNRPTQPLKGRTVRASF

| Ki [1] | Ki [2] | Ki [3] | Ki [4] | Ki [5] | Ki [6] | Compound |
| --- | --- | --- | --- | --- | --- | --- |
| > 10000 nM | – | – | – | – | – | NS(=O)(=O)c1ccc(N2CCN(CC[C@@H]3OCCc4ccccc43)CC2)cc1 [SONEPIPRAZOLE] |
| > 10000 nM | 2720 nM | 406 nM | 978 nM | 31.1 nM | 23.9 nM | C=CCN1CCCC1CNC(=O)c1cc(S(N)(=O)=O)cc(OC)c1OC (configuration not stated) [VERALIPRIDE] |
